# Test results from patent publication EP4353084A1, “BIOPESTICIDE COMPOSITION WITH SYNERGISTIC EFFECT AND METHOD FOR COMBATING AND CONTROLLING PESTS” (Kimitec Biogroup S.L, priority 2022, dated 2024).
# Several values for one entry are separate records, joined by “and”; a condition that tells them apart may be missing. Equal entries are not always repeated. Marks after values point to notes of the source that are not given here.
# Experiments:
# Assay type in all cases: in vivo
# Tetranychus urticae [1] = assay: In planta settling inhibition (Whole Plant Direct Method); conditions: 24 hours
# Description: The objective of this bioassay is to evaluate the effect of different doses of individual active ingredients and biopesticide composition on the settling behavior of Tetranychus urticae. It's based on the preference of mite adults for treated and non-treated bean (Phaseolus vulgaris) plants located in the same petri dishes (in vitro assays) or entomological cages (in planta assays): The experiments were conducted in bugdorm®-type net cages (60x60x60 cm, 140 microns mesh) (Figure 4). By putting inside this, 14 cm diameter pots with two similar bean plants in two-leaf stage in each pot (Figure 5). One of the plants was sprayed with the composition of the present invention and the other with the control and allowed to dry for 30 minutes. Adult mites (up to 100) were released at the base of stems between the two plants (treated and untreated), so that they had to choose between two alternatives or remain walking and/or resting on the cage walk. A total of 5 cages for each treatment (four plant each) (Figure 6) and control were used in each experiment and replicated 3 times in different days. Closed and labeled cages were incubated in a "walk-in" type growth chamber at 25 (±2) °C, 60% relative humidity (RH), and a photoperiod of 16 h:8 h light: dark. After 24 hours the number of adults settled in treated and non-treated plants and the number of laid eggs were recorded on both side of blade in each leaf. Number of mites and eggs were counted under a stereomicroscope. Settling inhibition index (%SI) was calculated according to the following formula: %SI = [1−((T)/(C))] × 100 [formula] T= Settling of treated plants; C= Settling of control plants. Oviposition inhibition index (%10) was calculated according to the following formula: %IO = [1−((T)/(C))] × 100 [formula] T= laid eggs on treated plants; C= laid eggs on control plants. Means of %SI and %10 were analyzed for significance by the non-parametric Wilcoxon signed-rank test (p<0.05). An asterisk (*) means statistically significancy. Table 6. In planta antifeedant effects against Tetranychus urticae
# Tetranychus urticae [2] = assay: Knock-down bioassays; conditions: 1% w/v; mortality assessed at 1, 2, 4, 6, 8, 16 and 24 hours after spraying; Figures 7 and 8
# Description: Furthermore, the composition of the present invention was tested to evaluate its knock-down effect in the contact mortality assays of individual active ingredients and blend. Mortality, as in bioassay of contact mortality, was assessed at 1, 2, 4, 6, 8, 16 and 24 hours after spraying the blend of Eucalyptus oil and geraniol. In the case of individual active ingredients (Eucalyptus oil and geraniol), we used the dose that give major activity in contact (topical) assays 1% w/v Table 4. Blend was prepared at 0.06:0.06 %w/v (Eucalyptus oil: geraniol) for the bioassays with the biopesticide composition.
# The same behavior was stated in the case of biopesticide composition (Figure 9). Abrupt curves showing high mortalities within oner hour are indicative of neurotoxic effects. However, smoothed curves could be used as indicative of non-toxic mode of action.
# Tetranychus urticae [3] = assay: Contact mortality (Leaf Disc Method); conditions: for Mortality (%M): adults, 24 h, Abbott corrected
# Description: This bioassay is to evaluate the physical effect of different doses on the mortality of Tetranychus urticae (red spider mite) adults in a short/medium-term (0-24 hours) by topical application.
# Tests were conducted in plastic net petri dishes (5 cm diameter) (Figure 2). (a) The bottom of the petri dish was covered with a thin (0.4 mm) layer of agar 12% (w/v). After 2 minutes, to cool agar, (b) bean (Phaseolus vulgaris) leaf discs (2 cm^2) were placed on the fresh agar surface (upper side up) and allowed to dry for 30 minutes. This provides a support and disc hydration along the experiment (24 h). Fifteen (c) Tetranychus urticae adults were placed on the upper surface of a bean leaf disc with a fine entomological brush. The mites were allowed to acclimate for 30 minutes. A total of 10 petri dishes for each treatment (individual active ingredients, blend of active ingredients, positive and negative controls) were used in each experiment and temporarily replicated 3 times along the week.
# Each treatment (different doses of individual active ingredients, blend of active ingredients, and controls) was sprayed (50 µl) two times on the settled spider mites, covering all the disc surface in each petri dishes using a micro-atomizer. Closed and labeled bottles were incubated in a compact-type growth chamber at 25 (±2) °C, 60% relative humidity (RH), and a photoperiod of 16 h:8 h light: dark. Numbers of live and dead mite adults were counted at 24 h post-treatment. Mite adults were considered dead if no movement was apparent after probing with the tip of a fine brush under stereoscopic magnifying glass. Mortality percentage was calculated in treatment and control groups. If the mortality in negative control is above 20%, the test was discarded. When control mortality was greater than 5% but less than 20%, the observed mortality (%M) was corrected using Abbott's formula (Abbott, 1925): % Corrected M = (X−Y)/(100−Y)x [formula]
# Where: X= Mortality (%) in the treatment; Y= Mortality (%) in the control
# Means of %M were compared using a one-way analysis of variance (ANOVA, p<0.05) and LSD-test as a post hoc test to verify significant differences between single treatments using Statgraphics Centurion XVII software. When nonnormality in the data was detected, an additional Kruskal-Wallis test was conducted, and Box-and-Whisker Plot (Median Notch) was presented. Each active ingredient and the blend were tested in a dose-response experiment (3-5 serial dilutions) to calculate their relative potency (EC50 and/or EC90) from a linear regression analysis (%M on Log-dose). In addition, death mite adults were carefully observed under stereoscopic magnifying glass to differentiate the mechanisms of action involved in contact mortality such as: Blocking tracheal insect spiracles (suffocation) and effect on insect cuticle and/or membranes (osmotic shock). Table 4. Contact mortality of test items against Tetranychus urticae
# Tetranychus urticae [4] = assay: In vitro settling inhibition (leaf disc painting method); conditions: 24 h
# Description: The objective of this bioassay is to evaluate the effect of different doses of individual active ingredients and biopesticide composition on the settling behavior of Tetranychus urticae. It's based on the preference of mite adults for treated and non-treated bean (Phaseolus vulgaris) plants located in the same petri dishes (in vitro assays) or entomological cages (in planta assays): Tests were conducted in plastic net petri dishes (5cm diameter) (Figure 3). The bottom of the petri dish was covered with a thin (0.4 mm) layer of agar 12% (w/v) (a). After 2 minutes to cool agar, bean (Phaseolus vulgaris) leaf discs (2 cm^2) were placed on the fresh agar surface (upper side up) and allowed to dry for 30 minutes. It provides a support and disc hydration along the experiment (24 h). Half of the discs were treated (T) with 20 µl of the individually active ingredients and the blend and the other half with water containing 2% TWEEN® 80 that was used as control (C). Fifteen Tetranychus urticae adults were placed on the middle of treated and untreated leaf discs and allowed to feed (24 h) in a compact-type growth chamber at 25 (±2) °C, 60% relative humidity, and a photoperiod of 16 h:8 h light: dark. A total of 10 petri dishes for each treatment were used in each experiment and temporarily replicated 3 times along the week. Table 5. In vitro antifeedant effects against Tetranychus urticae Settling inhibition index (%SI) was calculated according to the following formula: %SI = [1−((T)/(C))] × 100 [formula] T= Settling of treated plants; C= Settling of control plants.
structure (smiles),measurement,setting,value
CC(C)=CCC/C(C)=C/CO [geraniol],Oviposition inhibition (%IO),Tetranychus urticae [1]; Dose 0.10 % (w/v),44.3 ± 3.7* %
same,Settling inhibition (%SI),Tetranychus urticae [1]; Dose 0.10 % (w/v),57.7 ± 5.3%
same,Oviposition inhibition (%IO),Tetranychus urticae [1]; Dose 0.50 % (w/v),72.1 ± 3.1* %
same,Settling inhibition (%SI),Tetranychus urticae [1]; Dose 0.50 % (w/v),73.2 ± 2.6%
same,Oviposition inhibition (%IO),Tetranychus urticae [1]; Dose 1.0 % (w/v),81.1 ± 2.1* %
same,Settling inhibition (%SI),Tetranychus urticae [1]; Dose 1.0 % (w/v),76.1 ± 2.7%
same,Knock-down effect (knockdown curve),Tetranychus urticae [2],slow and gradual increase in the mortality along the time
same,Mortality (%M),Tetranychus urticae [3]; Dose 0.10 % (w/v),"18,1% and 18.1 ± 2.4% and 18.1 ± 2.4 ^a %"
same,Mortality (%M),Tetranychus urticae [3]; Dose 0.50 % (w/v),28.2% and 28.2 ± 3.2% and 28.2 ± 3.2 ^b %
same,Mortality (%M),Tetranychus urticae [3]; Dose 1.0 % (w/v),43.9 ± 2.5% and 43.9 ± 2.5 ^c %
same,"EC50 (%, w/v)","Tetranychus urticae [3]; contact mortality, linear regression %M on Log-dose, limits in brackets","EC50 (%, w/v) = 2.44 (1.24, 4.75)"
same,concentration given 50% of contact mortality,Tetranychus urticae [3]; in vivo,2.44%
same,Settling inhibition (%SI),Tetranychus urticae [4]; Dose 0.02 % (w/v),31.1 ± 4.4 %
same,Settling inhibition (%SI),Tetranychus urticae [4]; Dose 0.05 % (w/v),47.5 ± 4.6 %
same,Settling inhibition (%SI),Tetranychus urticae [4]; Dose 0.10 % (w/v),70.6%
same,Settling inhibition (%SI),"Tetranychus urticae [4]; Dose 0.10 % (w/v), listed as Geraniol",70.6 ± 3.0 %
same,Settling inhibition (%SI),Tetranychus urticae [4]; Dose 0.50 % (w/v),75.3 ± 3.4 %
same,Settling inhibition (%SI),Tetranychus urticae [4]; Dose 1.0 % (w/v),82.9 ± 2.5 %
Cc1ccc(C(C)C)cc1O [Carvacrol],Mortality (%M),Tetranychus urticae [3]; Dose 0.01 % (w/v),38.9 ± 5.1%
same,Mortality (%M),Tetranychus urticae [3]; Dose 0.05 % (w/v),47.1 ± 7.2%
same,Mortality (%M),Tetranychus urticae [3]; Dose 0.10 % (w/v),66.8 ± 5.3%
same,Mortality (%M),Tetranychus urticae [3]; Dose 1.0 % (w/v),100.0 ± 0.0%
same,concentration given 80% of contact mortality,Tetranychus urticae [3]; EC80,0.55%
same,"EC80 (%, w/v)","Tetranychus urticae [3]; Table 12, contact mortality, limits in brackets, text calls it EC80","EC50 (%, w/v) = 0.55 (0.42, 0.8)"
